Results from patent US20240209028A1, “CNP COMPOUNDS” (priority 2022, published 2024).
Starred links: 1 amine or outer side, 2 acyl side, 3 side chain; linkers in the order of their positions; H or OH if unused. Positions of bridges follow the written chain, without caps; N, C: chain ends. Residues, ends and D or L forms follow the SMILES beside them. *: point of attachment. C18 diacid = O=C(O)CCCCCCCCCCCCCCCCC(=O)*; γGlu = O=C(O)[C@H](CCC(=O)[*:2])N[*:1]; AEEA = NCCOCCOCC(=O)O

Test: PK of CNP compounds after i.v. and s.c. administration to rats
Details: male, Sprague Dawley, in vivo, iv, rat, i.v., about 100 nmol/kg; for clearance: read-out: Cl (L/hr/kg), i.v. administration (converted); for half-life: read-out: T½ (hr), i.v. administration (converted)
How it was run: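 Plasma exposure was quantified by protein precipitation and turboflow LC-MS/MS in SRM mode. Rats received either 100 nmol/kg intravenously or 300 nmol/kg subcutaneously, with sublingual blood taken at baseline and at points up to 72 h. Per-animal NCA gave clearance as Dose/AUCinf, and results are averaged over 4-6 animals.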

SMILES: CC[C@H](C)[C@@H]1NC(=O)[C@H](CCCNC(=N)N)NC(=O)[C@H](CC(=O)O)NC(=O)[C@H](CC(C)C)NC(=O)[C@@H]2CCCN2C(=O)[C@H](CC(C)C)NC(=O)CNC(=O)[C@H](Cc2ccccc2)NC(=O)[C@@H](NC(=O)CNC(=O)[C@H](CO)NC(=O)[C@H](CO)NC(=O)[C@H](CC(C)C)NC(=O)CNC(=O)[C@H](CCCCN)NC(=O)[C@H](CCCCN)NC(=O)[C@H](CCC(N)=O)NC(=O)[C@H](C)NC(=O)CNC(=O)[C@H](CCC(=O)O)NC(=O)[C@H](Cc2ccc(O)cc2)NC(=O)[C@H](CO)NC(=O)[C@H](CCCNC(=N)N)NC(=O)[C@H](C)NC(=O)[C@H](CCC(N)=O)NC(=O)[C@@H]2CCCN2C(=O)[C@H](Cc2c[nH]cn2)NC(=O)[C@H](CCC(=O)O)NC(=O)[C@H](CCC(N)=O)NC(=O)COCCOCCNC(=O)COCCOCCNC(=O)CC[C@H](NC(=O)CCCCCCCCCCCCCCCCC(=O)O)C(=O)O)CSSC[C@@H](C(=O)O)NC(=O)CNC(=O)[C@H](CC(C)C)NC(=O)CNC(=O)[C@H](CO)NC(=O)[C@H](CC(C)C)NC(=O)[C@H](CO)NC(=O)CNC1=O [compound 1379] ({C18 diacid-γGlu-AEEA-AEEA}-QEHPQARSYEGAQKKGLSSGCFGLPLDRIGSLSGLGC-OH; disulfide 21-37; C-terminus assumed)
- clearance: 0.0051 L/h/kg
- half-life: 9.8 h

SMILES: CC[C@H](C)[C@@H]1NC(=O)[C@H](CCCNC(=N)N)NC(=O)[C@H](CC(=O)O)NC(=O)[C@H](CC(C)C)NC(=O)[C@@H]2CCCN2C(=O)[C@H](CC(C)C)NC(=O)CNC(=O)[C@H](Cc2ccccc2)NC(=O)[C@@H](NC(=O)CNC(=O)[C@H](CCC(N)=O)NC(=O)[C@H](CO)NC(=O)[C@H](CO)NC(=O)CNC(=O)[C@H](Cc2c[nH]cn2)NC(=O)[C@H](Cc2c[nH]cn2)NC(=O)[C@H](CCC(N)=O)NC(=O)[C@H](C)NC(=O)CNC(=O)[C@H](Cc2c[nH]cn2)NC(=O)[C@H](Cc2ccc(O)cc2)NC(=O)[C@H](CCCCN)NC(=O)[C@H](Cc2c[nH]cn2)NC(=O)[C@H](C)NC(=O)[C@H](CCC(N)=O)NC(=O)[C@@H]2CCCN2C(=O)[C@H](Cc2c[nH]cn2)NC(=O)[C@H](CCC(=O)O)NC(=O)[C@H](CCC(N)=O)NC(=O)COCCOCCNC(=O)COCCOCCNC(=O)CC[C@H](NC(=O)CCCCCCCCCCCCCCCCC(=O)O)C(=O)O)CSSC[C@@H](C(=O)O)NC(=O)CNC(=O)[C@H](CC(C)C)NC(=O)CNC(=O)[C@H](CO)NC(=O)[C@H](CC(C)C)NC(=O)[C@H](CO)NC(=O)CNC1=O [compound 1381] ({C18 diacid-γGlu-AEEA-AEEA}-QEHPQAHKYHGAQHHGSSQGCFGLPLDRIGSLSGLGC-OH; disulfide 21-37)
- clearance: 0.00382 L/h/kg
- half-life: 15.2 h

SMILES: CC[C@H](C)[C@@H]1NC(=O)[C@H](CCCNC(=N)N)NC(=O)[C@H](CC(=O)O)NC(=O)[C@H](CC(C)C)NC(=O)[C@@H]2CCCN2C(=O)[C@H](CC(C)C)NC(=O)CNC(=O)[C@H](Cc2ccccc2)NC(=O)[C@@H](NC(=O)CNC(=O)[C@H](CO)NC(=O)[C@H](CO)NC(=O)[C@H](CC(C)C)NC(=O)CNC(=O)[C@H](CCCCN)NC(=O)[C@H](CCCCN)NC(=O)[C@H](CCC(N)=O)NC(=O)[C@H](C)NC(=O)CNC(=O)[C@H](CCCCN)NC(=O)[C@H](Cc2ccc(O)cc2)NC(=O)[C@H](CCCCN)NC(=O)[C@H](CCCNC(=N)N)NC(=O)[C@H](C)NC(=O)CC[C@H](NC(=O)CC[C@H](NC(=O)CC[C@H](NC(=O)CC[C@H](NC(=O)CCCCCCCCCCCCCCCCC(=O)O)C(=O)O)C(=O)O)C(=O)O)C(=O)O)CSSC[C@@H](C(=O)O)NC(=O)CNC(=O)[C@H](CC(C)C)NC(=O)CNC(=O)[C@H](CO)NC(=O)[C@H](CC(C)C)NC(=O)[C@H](CO)NC(=O)CNC1=O [compound 1386] ({C18 diacid-γGlu-γGlu-γGlu-γGlu}-ARKYKGAQKKGLSSGCFGLPLDRIGSLSGLGC-OH; disulfide 16-32)
- clearance: 0.00605 L/h/kg
- half-life: 8.16 h

SMILES: CC[C@H](C)[C@@H]1NC(=O)[C@H](CCCNC(=N)N)NC(=O)[C@H](CC(=O)O)NC(=O)[C@H](CC(C)C)NC(=O)[C@@H]2CCCN2C(=O)[C@H](CC(C)C)NC(=O)CNC(=O)[C@H](Cc2ccccc2)NC(=O)[C@@H](NC(=O)CNC(=O)[C@H](CO)NC(=O)[C@H](CO)NC(=O)[C@H](CC(C)C)NC(=O)CNC(=O)[C@H](CCCCN)NC(=O)[C@H](CCCCN)NC(=O)[C@H](CCC(N)=O)NC(=O)[C@H](C)NC(=O)CNC(=O)[C@H](CCCCN)NC(=O)[C@H](Cc2ccc(O)cc2)NC(=O)[C@H](CCCCN)NC(=O)[C@H](CCCNC(=N)N)NC(=O)[C@H](C)NC(=O)[C@H](CCC(N)=O)NC(=O)[C@@H]2CCCN2C(=O)[C@H](Cc2c[nH]cn2)NC(=O)[C@H](CCC(=O)O)NC(=O)[C@H](CCC(N)=O)NC(=O)CC[C@H](NC(=O)CC[C@H](NC(=O)CC[C@H](NC(=O)CC[C@H](NC(=O)CCCCCCCCCCCCCCCCC(=O)O)C(=O)O)C(=O)O)C(=O)O)C(=O)O)CSSC[C@@H](C(=O)O)NC(=O)CNC(=O)[C@H](CC(C)C)NC(=O)CNC(=O)[C@H](CO)NC(=O)[C@H](CC(C)C)NC(=O)[C@H](CO)NC(=O)CNC1=O [compound 1389] ({C18 diacid-γGlu-γGlu-γGlu-γGlu}-QEHPQARKYKGAQKKGLSSGCFGLPLDRIGSLSGLGC-OH; disulfide 21-37)
- clearance: 0.00415 L/h/kg
- half-life: 14.6 h

SMILES: CC[C@H](C)[C@@H]1NC(=O)[C@H](CCCNC(=N)N)NC(=O)[C@H](CC(=O)O)NC(=O)[C@H](CC(C)C)NC(=O)[C@@H]2CCCN2C(=O)[C@H](CC(C)C)NC(=O)CNC(=O)[C@H](Cc2ccccc2)NC(=O)[C@@H](NC(=O)CNC(=O)[C@H](CO)NC(=O)[C@H](CO)NC(=O)[C@H](CC(C)C)NC(=O)CNC(=O)[C@H](CCCCN)NC(=O)[C@H](CCCCN)NC(=O)[C@H](CCC(N)=O)NC(=O)[C@H](C)NC(=O)CNC(=O)[C@H](CCC(=O)O)NC(=O)[C@H](Cc2ccc(O)cc2)NC(=O)COCCOCCNC(=O)COCCOCCNC(=O)COCCOCCNC(=O)COCCOCCNC(=O)CC[C@H](NC(=O)CCCCCCCCCCCCCCCCC(=O)O)C(=O)O)CSSC[C@@H](C(=O)O)NC(=O)CNC(=O)[C@H](CC(C)C)NC(=O)CNC(=O)[C@H](CO)NC(=O)[C@H](CC(C)C)NC(=O)[C@H](CO)NC(=O)CNC1=O [compound 1392] ({C18 diacid-γGlu-AEEA-AEEA-AEEA-AEEA}-YEGAQKKGLSSGCFGLPLDRIGSLSGLGC-OH; disulfide 13-29)
- clearance: 0.00799 L/h/kg
- half-life: 5.72 h
